Measurements: publication PMC4273984 (ACS Chemical Biology, 2014)
Blank lines part the entries; values can stand above or below the compound they belong to.

Assays:
BrdT = BrdT (Homo sapiens, UniProt Q58F21); experiment: Protein-observed 19F NMR, 5FW-BrdT; assay type: binding; conditions: resonance perturbation in slow exchange
Brd4 = conditions: BET bromodomain inhibition; cited from earlier work
Brd4(1) = Brd4(1) (Homo sapiens, UniProt O60885); conditions: fluorescence anisotropy or TR-FRET; cited from earlier work
5FW-Brd4(1) = 5FW-Brd4(1) (Homo sapiens, UniProt O60885); experiment: Protein-observed 19F NMR; assay type: binding; conditions: W81 resonance perturbation
3FY-Brd4(1) = 3FY-Brd4(1) (Homo sapiens, UniProt O60885); experiment: Protein-observed 19F NMR; assay type: binding

- binding to BrdT by PrOF NMR (BrdT): bind to BrdT
Structure (SMILES): CC[C@@H]1C(=O)N(C)c2cnc(Nc3ccc(C(=O)NC4CCN(C)CC4)cc3OC)nc2N1C1CCCC1 [BI2536]

Structure (SMILES): CC(=O)Nc1ccc(O)cc1 [acetaminophen]
- affinity for Brd4(1) (Brd4(1)): too weak
- Kd (5FW-Brd4(1)): 230 ± 30 µM
- Kd (3FY-Brd4(1)): 290 ± 40 µM
